Results: article PMC4354951 (European journal of medicinal chemistry, 2008)
Entries after “also recorded” stand apart in the source; their conditions may differ. One block for each compound: values may come before it.

Key:
[1] = pKa and degree of ionization of phosphate/phosphonate; assay type: physicochemical; settings: physiological conditions, pH 7.4
[2] = Chemical hydrolysis under gastric juice-like conditions; assay type: physicochemical
[3] = Stability in human blood serum, Method B
human P2Y2 receptor = human P2Y2 receptor (Homo sapiens, UniProt P41231); test: Increase in [Ca2+]i in 1321N1 astrocytoma cells expressing P2Y2 receptor; assay type: cell-based; settings: read-out: EC50 of analogue-induced increase in [Ca2+]i, P2Y2; 1321N1 cell transfectants
Sequence of human P2Y2 receptor (P41231 whole entry): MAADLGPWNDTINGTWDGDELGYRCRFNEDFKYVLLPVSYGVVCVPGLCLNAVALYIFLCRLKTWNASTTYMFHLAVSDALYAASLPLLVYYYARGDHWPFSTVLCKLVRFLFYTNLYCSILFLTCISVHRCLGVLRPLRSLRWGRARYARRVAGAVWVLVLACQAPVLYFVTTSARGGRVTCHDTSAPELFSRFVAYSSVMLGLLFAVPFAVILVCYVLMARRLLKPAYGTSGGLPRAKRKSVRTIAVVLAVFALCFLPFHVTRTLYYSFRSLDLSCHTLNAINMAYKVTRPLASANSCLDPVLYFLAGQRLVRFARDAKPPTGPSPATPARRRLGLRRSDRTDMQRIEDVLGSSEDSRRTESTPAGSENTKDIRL

human NTPDase1 = target: T1, human NTPDase1 (Homo sapiens, UniProt P49961); test: Hydrolysis by NTPDase1; assay type: biochemical
T1 sequence (P49961 1-510): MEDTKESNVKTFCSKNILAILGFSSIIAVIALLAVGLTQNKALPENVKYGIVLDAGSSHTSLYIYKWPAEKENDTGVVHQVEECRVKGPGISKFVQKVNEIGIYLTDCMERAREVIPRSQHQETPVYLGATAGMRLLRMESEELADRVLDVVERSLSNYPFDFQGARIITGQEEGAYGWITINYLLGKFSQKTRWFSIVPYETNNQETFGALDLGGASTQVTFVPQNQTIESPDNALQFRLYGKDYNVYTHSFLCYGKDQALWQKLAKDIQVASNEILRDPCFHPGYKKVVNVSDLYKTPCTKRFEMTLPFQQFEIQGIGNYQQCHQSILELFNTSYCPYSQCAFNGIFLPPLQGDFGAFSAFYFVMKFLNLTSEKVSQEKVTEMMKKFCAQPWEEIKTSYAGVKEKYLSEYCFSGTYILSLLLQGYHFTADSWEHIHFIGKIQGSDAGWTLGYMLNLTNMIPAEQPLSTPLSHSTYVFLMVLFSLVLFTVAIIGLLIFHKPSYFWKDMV

human NTPDase3 = target: T2, human NTPDase3 (Homo sapiens, UniProt O75355); test: Hydrolysis by NTPDase3; assay type: biochemical
T2 sequence (O75355 1-529): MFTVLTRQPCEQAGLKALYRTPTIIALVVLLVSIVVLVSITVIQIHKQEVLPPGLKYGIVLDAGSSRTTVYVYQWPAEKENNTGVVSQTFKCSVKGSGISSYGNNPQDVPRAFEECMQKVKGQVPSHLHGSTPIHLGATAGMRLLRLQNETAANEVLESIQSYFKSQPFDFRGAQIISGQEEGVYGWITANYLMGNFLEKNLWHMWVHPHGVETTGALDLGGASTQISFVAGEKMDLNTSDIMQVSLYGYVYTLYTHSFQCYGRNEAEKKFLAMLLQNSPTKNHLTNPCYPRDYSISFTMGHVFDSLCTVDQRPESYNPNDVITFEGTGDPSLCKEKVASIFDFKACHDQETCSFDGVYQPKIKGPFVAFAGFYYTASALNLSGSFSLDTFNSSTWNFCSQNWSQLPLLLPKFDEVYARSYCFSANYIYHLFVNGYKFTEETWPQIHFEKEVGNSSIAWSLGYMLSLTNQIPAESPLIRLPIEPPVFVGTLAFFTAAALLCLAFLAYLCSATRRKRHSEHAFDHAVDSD

turkey P2Y1 receptor = turkey P2Y1 receptor (Meleagris gallopavo, UniProt P49652); assay type: cell-based; settings: 1321N1 cell transfectants
Sequence of turkey P2Y1 receptor (P49652 whole entry): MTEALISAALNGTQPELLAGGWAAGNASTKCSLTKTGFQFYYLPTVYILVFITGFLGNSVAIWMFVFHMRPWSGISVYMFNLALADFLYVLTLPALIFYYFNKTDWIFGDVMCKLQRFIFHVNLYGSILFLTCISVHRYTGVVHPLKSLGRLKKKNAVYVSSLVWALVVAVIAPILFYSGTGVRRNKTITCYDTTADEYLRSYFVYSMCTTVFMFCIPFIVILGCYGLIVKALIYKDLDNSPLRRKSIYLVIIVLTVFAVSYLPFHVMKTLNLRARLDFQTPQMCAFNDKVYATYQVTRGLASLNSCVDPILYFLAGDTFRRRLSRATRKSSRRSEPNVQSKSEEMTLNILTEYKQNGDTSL

human NTPDase2 = target: T3, human NTPDase2 (Homo sapiens, UniProt Q9Y5L3); test: Hydrolysis by NTPDase2; assay type: biochemical; settings: 100 μM substrate; relative to ATP hydrolysis (100%)
T3 sequence (Q9Y5L3 1-495): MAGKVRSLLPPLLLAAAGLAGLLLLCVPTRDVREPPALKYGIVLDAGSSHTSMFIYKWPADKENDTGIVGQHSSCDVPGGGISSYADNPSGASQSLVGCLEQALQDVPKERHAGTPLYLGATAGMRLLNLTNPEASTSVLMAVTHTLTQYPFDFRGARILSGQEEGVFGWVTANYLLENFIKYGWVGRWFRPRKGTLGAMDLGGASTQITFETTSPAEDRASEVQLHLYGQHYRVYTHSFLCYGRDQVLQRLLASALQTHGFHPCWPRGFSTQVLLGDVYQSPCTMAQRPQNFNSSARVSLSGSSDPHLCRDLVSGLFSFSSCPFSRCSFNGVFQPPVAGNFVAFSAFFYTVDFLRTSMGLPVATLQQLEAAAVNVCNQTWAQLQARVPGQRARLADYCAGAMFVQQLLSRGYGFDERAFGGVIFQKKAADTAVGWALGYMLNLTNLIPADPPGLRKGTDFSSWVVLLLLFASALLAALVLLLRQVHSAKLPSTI

human NTPDase8 = target: T4, human NTPDase8 (Homo sapiens, UniProt Q5MY95); test: Hydrolysis by NTPDase8; assay type: biochemical
T4 sequence (Q5MY95 1-495): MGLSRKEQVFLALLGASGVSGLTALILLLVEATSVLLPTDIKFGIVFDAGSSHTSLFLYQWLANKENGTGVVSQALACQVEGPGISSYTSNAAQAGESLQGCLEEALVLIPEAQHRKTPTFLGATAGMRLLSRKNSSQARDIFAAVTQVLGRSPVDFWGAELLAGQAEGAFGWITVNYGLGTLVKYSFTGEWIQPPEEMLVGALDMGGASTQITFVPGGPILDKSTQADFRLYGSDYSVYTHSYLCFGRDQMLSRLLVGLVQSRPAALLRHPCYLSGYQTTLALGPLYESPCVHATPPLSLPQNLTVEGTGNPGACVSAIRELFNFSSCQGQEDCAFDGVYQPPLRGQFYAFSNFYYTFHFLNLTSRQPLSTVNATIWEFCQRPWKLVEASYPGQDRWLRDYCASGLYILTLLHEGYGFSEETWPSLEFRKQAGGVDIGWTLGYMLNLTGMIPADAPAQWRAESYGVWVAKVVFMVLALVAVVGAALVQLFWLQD

rat P2Y6 receptor = rat P2Y6 receptor (Rattus norvegicus, UniProt Q63371); test: Increase in [Ca2+]i in 1321N1 astrocytoma cells expressing P2Y6 receptor; assay type: cell-based; settings: read-out: EC50 of analogue-induced increase in [Ca2+]i, P2Y6; 1321N1 cell transfectants
Sequence of rat P2Y6 receptor (Q63371 whole entry): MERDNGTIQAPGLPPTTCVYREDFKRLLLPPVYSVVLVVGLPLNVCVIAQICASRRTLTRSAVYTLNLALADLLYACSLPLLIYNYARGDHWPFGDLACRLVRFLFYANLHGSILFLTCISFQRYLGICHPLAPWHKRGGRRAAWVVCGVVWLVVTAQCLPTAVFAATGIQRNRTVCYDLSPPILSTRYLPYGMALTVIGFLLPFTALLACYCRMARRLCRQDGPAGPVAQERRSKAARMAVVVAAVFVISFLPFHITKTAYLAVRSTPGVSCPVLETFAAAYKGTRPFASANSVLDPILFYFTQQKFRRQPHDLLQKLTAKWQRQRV

human P2Y4 receptor = human P2Y4 receptor (Homo sapiens, UniProt P51582); test: Increase in [Ca2+]i in 1321N1 astrocytoma cells expressing P2Y4 receptor; assay type: cell-based; settings: read-out: EC50 of analogue-induced increase in [Ca2+]i, P2Y4; 1321N1 cell transfectants
Sequence of human P2Y4 receptor (P51582 whole entry): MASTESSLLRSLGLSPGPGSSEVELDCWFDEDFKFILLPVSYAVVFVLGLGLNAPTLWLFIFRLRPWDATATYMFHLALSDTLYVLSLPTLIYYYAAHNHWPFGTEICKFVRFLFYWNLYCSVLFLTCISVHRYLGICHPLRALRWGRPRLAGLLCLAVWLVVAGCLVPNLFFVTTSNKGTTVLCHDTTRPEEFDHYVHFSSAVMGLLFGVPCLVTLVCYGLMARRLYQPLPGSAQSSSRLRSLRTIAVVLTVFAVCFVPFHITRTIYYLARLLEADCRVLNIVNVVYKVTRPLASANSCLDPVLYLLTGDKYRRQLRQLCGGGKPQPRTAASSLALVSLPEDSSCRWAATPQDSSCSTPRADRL

P2Y1R = settings: cited from earlier work
P2Y2R = settings: cited from earlier work
human NPP3 = target: T5, human NPP3 (Homo sapiens, UniProt O14638); test: Hydrolysis by NPP3; assay type: biochemical
T5 sequence (O14638 1-875): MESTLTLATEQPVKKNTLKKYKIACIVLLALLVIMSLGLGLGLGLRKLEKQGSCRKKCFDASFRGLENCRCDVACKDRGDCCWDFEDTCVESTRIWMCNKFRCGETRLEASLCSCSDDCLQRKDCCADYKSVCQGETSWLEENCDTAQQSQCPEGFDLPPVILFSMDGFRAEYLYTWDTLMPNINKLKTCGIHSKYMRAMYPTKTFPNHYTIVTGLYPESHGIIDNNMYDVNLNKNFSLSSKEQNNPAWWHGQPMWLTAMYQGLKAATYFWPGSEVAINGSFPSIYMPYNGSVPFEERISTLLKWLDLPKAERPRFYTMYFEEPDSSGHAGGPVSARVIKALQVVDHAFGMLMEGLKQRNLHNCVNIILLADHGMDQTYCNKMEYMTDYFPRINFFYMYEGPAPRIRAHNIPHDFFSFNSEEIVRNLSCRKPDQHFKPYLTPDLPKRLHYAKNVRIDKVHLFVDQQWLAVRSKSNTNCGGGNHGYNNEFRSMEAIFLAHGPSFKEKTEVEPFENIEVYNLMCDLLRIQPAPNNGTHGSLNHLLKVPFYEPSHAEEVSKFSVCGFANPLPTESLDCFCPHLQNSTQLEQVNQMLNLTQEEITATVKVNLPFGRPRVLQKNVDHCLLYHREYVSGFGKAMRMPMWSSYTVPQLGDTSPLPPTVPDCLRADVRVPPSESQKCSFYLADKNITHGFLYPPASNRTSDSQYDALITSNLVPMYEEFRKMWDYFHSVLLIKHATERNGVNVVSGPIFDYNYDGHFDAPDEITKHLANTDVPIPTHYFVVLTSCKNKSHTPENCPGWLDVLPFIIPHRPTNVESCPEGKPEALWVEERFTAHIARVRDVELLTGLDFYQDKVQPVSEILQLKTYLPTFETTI

human NPP1 = target: T6, human NPP1 (Homo sapiens, UniProt P22413); test: Hydrolysis by NPP1; assay type: biochemical
T6 sequence (P22413 1-925): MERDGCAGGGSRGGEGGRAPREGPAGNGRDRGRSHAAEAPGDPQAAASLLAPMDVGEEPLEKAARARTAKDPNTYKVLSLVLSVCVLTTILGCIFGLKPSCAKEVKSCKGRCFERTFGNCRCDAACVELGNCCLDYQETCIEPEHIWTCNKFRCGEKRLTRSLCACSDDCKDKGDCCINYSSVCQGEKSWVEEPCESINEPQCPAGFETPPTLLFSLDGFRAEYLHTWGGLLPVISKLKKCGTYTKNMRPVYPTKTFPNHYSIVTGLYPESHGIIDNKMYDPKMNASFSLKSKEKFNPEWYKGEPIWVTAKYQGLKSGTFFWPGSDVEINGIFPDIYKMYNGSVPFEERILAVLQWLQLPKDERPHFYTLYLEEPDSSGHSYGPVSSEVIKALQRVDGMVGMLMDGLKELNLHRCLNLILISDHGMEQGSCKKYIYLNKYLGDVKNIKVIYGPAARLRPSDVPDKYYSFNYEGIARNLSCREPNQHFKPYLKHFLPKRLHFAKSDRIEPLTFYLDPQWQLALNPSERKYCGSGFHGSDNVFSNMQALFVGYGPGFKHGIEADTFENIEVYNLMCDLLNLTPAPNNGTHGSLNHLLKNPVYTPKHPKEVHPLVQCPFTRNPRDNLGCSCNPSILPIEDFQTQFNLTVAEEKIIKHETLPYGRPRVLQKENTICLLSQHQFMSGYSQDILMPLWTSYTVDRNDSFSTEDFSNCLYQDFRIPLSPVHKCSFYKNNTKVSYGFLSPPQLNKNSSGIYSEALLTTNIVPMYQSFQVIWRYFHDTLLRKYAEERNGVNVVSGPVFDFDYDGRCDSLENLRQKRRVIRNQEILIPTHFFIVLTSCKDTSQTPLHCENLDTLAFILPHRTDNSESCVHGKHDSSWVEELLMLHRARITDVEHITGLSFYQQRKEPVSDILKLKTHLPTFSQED

[4] = 100 μM substrate, relative to ATP hydrolysis (100%)
[5] = 100 μM substrate, relative to pnp-TMP hydrolysis (100%)

fraction ionized [1]: 91%
Compound: CSc1nc(N)c2ncn([C@@H]3O[C@H](COP(=O)(O)OP(=O)(O)OP(=O)(O)O)[C@@H](O)[C@H]3O)c2n1 [2-MeS–ATP]

Compound: BP(=O)(OC[C@H]1O[C@@H](n2cnc3c(N)ncnc32)[C@H](O)[C@@H]1O)OP(=O)(O)CP(=O)(O)O (stereo partly drawn) [compound 3, Adenosine-5′-O-(α-boranotriphosphate)-β,γ-CH2]
improvement of chemical stability as compared to 1 ([2]; pH 1.4, 37 °C): ca. 3 fold

Compound: BP(=O)(OC[C@H]1O[C@@H](n2cnc3c(N)nc(SC)nc32)[C@H](O)[C@@H]1O)OP(=O)(O)CP(=O)(O)O (stereo partly drawn) [compound 4, 2-MeS–adenosine-5′-O-(α-boranotriphosphate)-β,γ-CH2]
enhancement of the metabolic stability of ATP ([3]; human blood serum, half-life vs ATP): ≥ 20 fold

Compound: [BH3-][P+](O)(OC[C@H]1O[C@@H](n2cnc3c(N)nc(SC)nc32)[C@H](O)[C@@H]1O)OP(=O)(O)CP(=O)(O)O (single isomer, unassigned) [4B, 2-MeS–adenosine-5′-O-(α-boranotriphosphate)-β,γ-CH2]
EC50 (human P2Y2 receptor): > 100 µM
Relative activity of NTPDase1 (human NTPDase1; [4]): <1%
Relative activity of NTPDase3 (human NTPDase3; [4]): 2.0 ± 1.0%
agonist activity at P2Y1R (turkey P2Y1 receptor): potent P2Y1R agonists; also recorded: active isomer
EC50 (turkey P2Y1 receptor; read-out: EC50 of analogue-induced increase in [Ca2+]i, P2Y1): 17.2 ± 5.3 µM
t1/2 of acidic hydrolysis ([2]; KCl/HCl buffer pH 1.4, 37 °C, 31P NMR (2) or HPLC-MS (3B, 4B)): 14.5 h
Relative activity of NTPDase2 (human NTPDase2): 1.0 ± 0.3%
Relative activity of NTPDase8 (human NTPDase8; [4]): 3.0 ± 07%
t1/2 in human blood serum ([3]; Method B, human blood serum and RPMI-1640, 37 °C): 71.9 h
EC50 (rat P2Y6 receptor): > 100 µM
EC50 (human P2Y4 receptor): > 100 µM

fraction ionized [1]: 91%
Compound: CSc1nc(N)c2ncn([C@@H]3O[C@H](COP(=O)(O)OP(=O)(O)O)[C@@H](O)[C@H]3O)c2n1 [2-MeS-ADP]

Compound: 2-MeS–ATP-α-B [1A]
potency of 1A isomer relative to 1B isomer at P2Y1R (P2Y1R): 20 fold

ATPase activity (100%) of NTPDase1 (human NTPDase1; 100 μM ATP): 497 ± 38 nmol Pi/min·mg protein
ATPase activity (100%) of NTPDase3 (human NTPDase3; 100 μM ATP): 493 ± 21 nmol Pi/min·mg protein
ATPase activity (100%) of NTPDase8 (human NTPDase8; 100 μM ATP): 173 ± 18 nmol Pi/min·mg protein
Compound: Nc1ncnc2c1ncn2[C@@H]1O[C@H](COP(=O)(O)OP(=O)(O)OP(=O)(O)O)[C@@H](O)[C@H]1O [ATP, reference compound]

Compound: BP(=O)(OC[C@H]1O[C@@H](n2cnc3c(N)nc(Cl)nc32)[C@H](O)[C@@H]1O)OP(=O)(O)OP(=O)(O)O (stereo partly drawn) [2-Cl–ATP-α-B, reference compound]
activity at P2Y2R (P2Y2R): very weak agonists

Compound: Nc1ncnc2c1ncn2[C@@H]1O[C@H](COP(=O)(O)OP(=O)(O)O)[C@@H](O)[C@H]1O [ADP]
EC50 (P2Y1R; read-out: EC50 at P2Y1R, endogenous agonist ref 1): ~0.1 µM

Compound: Cc1cn([C@H]2C[C@H](O)[C@@H](COP(=O)(O)Oc3ccc([N+](=O)[O-])cc3)O2)c(=O)[nH]c1=O [pnp-TMP, p-nitrophenylthymidine-5′-monophosphate, reference compound]
100% activity of NPP3 with pnp-TMP as substrate (human NPP3; 100 μM pnp-TMP): 53 ± 4 nmol p-nitrophenol/min·mg protein
Relative activity of NPP3 (human NPP3; [5]): 100%
100% activity of NPP1 with pnp-TMP as substrate (human NPP1; 100 μM pnp-TMP): 24 ± 2 nmol p-nitrophenol/min·mg protein
Relative activity of NPP1 (human NPP1; [5]): 100%
